No end group written: not given here.
Assays:
[1] = test system: rabbit conjunctival fibroblasts; assay: Conjunctival fibroblast proliferation, tritiated thymidine assay; type: cell-based; settings: for Thymidine uptake: day 4, no drug control 8537 cpm
Text: The failure of gluacoma treatment by filtration surgery is most often caused by scarring. Scarring requires fibroblast proliferation and fibrosis of the subconjunctive space. Proliferation of rabbit conjunctival fibroblasts was studied using the tritiated thymidine assay, which serves as an in vitro model of fibroblast proliferation in the rabbit eye (see Invest. Ophthalmol. Vis. Sci., 31, 1848-1855 (1990)). The ability of synthetic polypeptides derived from ECM molecules to inhibit conjuntival fibroblast proliferation was examined in this model.
Rabbit conjunctival fibroblasts were plated into 96-well microtiter plates at 1000 cells/well in 200 microliters of standard fibroblast culture media. Standard fibroblast culture media include Eagle's minimal essential medium containing 15% fetal bovine serum, penicillin G 100 IU/ml, streptomycin 100 μg/ml, and amphotericin B 0.25 μg/ml. Hep-II was added to the wells in concentrations ranging from 1 μg/ml to 1000 μg/ml after removing an equal volume of media to maintain 200 microliters/well. The peptide was used in concentrations of 1, 3, 7, 10, 25, 50, 100, 200, 300, 400, 500, 600, 800 and 1000 microgram/ml (experiments 1-14, respectively in FIG. 26). The tissue culture plates were incubated at 37° C. in a humidified atmosphere of 5% carbon dioxide. Two separate sets experiments were conducted. Each set of experiments was done in replicates of four. In the first set of experiments, tritiated thymidine was added 22 hours prior to each harvesting on days 4, 5, and 8. In the second set of experiments, tritiated thymidine was added 22 hours prior to each harvesting on days 4, 5, and 6. Wells with vehicle but no test compound served as negative controls (experiment #15) and cells with mitomycin-C at 100 μg/ml served as positive controls (experiment #16).

[2] = 3H-heparin; cited from earlier work
[3] = test system: proliferative vitreoretinopathy in rabbits; assay: Rabbit model of experimental proliferative vitreoretinopathy (intravitreal fibroblast injection); type: in vivo
Method: The rabbit model for proliferative vitreoretinopathy is described in Thresher et al., Graefe's Arch. Clin. Exp. Ophthalmol., 221, 192-198 (1984). Adult Dutch Belted rabbits of both sexes were used in the study. All animals were treated according to ARVO Animal Use Guidelines. All eyes were examined prior to initiation of a study and only clinically normal animals were used.
The rabbits were anesthetized using an intramuscular injection of a mix of ketamine (30 mg/kg) and xylazine (5 mg/kg). Pupils were dilated with Mydriacyl (Tropicamide) 1% and Neosynephrine 2.5% topical drops. Topical conjunctival anesthesia was provided with Proparacaine […] drops. All procedures were performed in an approved animal surgical facility. […] This site was used for subsequent intraocular injections, preventing iatrogenic retinal tears at the injection site. An intravitreal injection of 0.4 cc millipore-filtered 100% perfluoropropane gas was administered to produce a gas compression vitrectomy. Once the expansile gas bubble had absorbed, 5-10×10^4 dermal rabbit fibroblasts with or without 200 μg of polypeptide (injection volume-0.1 cc) were injected through a 27 gauge needle into the vitreous cavity. Under indirect ophthalmoscopic visualization, the tip of the needle was placed over the optic nerve head and the cells were injected in this location.
The animals were then observed for the development of proliferative vitreoretinopathy. The final stage of retinal detachment was scored from 0 to 7 using the standard grading scale shown below (see Hida et al., Graefe's Arch. Clin. Exp. Ophthalmol., 225, 1763-1769 (1991)).
Retinal photographs were taken with a wide field fundus camera (Canon) to document the final stage of retinal detachment. Animals were sacrificed while under deep anesthesia with an intravenous injection of 1 cc of euthanasia solution. The eyes were then immediately enucleated, fixed in 10% formalin, paraffin embedded, sectioned at 7 microns, and stained with hematoxylin and eosin for histology.
Three weeks following peripheral retinal cryopexy and gas compression vitrectomy, rabbit fibroblasts incubated for 1 hr with 200 ug of laminin polypeptide R37, type IV collagen polypeptide Hep-II, or BSS (balanced saline solution; control) were injected intravitreally. One eye of each rabbit received polypeptide incubated fibroblasts and the other eye received the control cells. Eyes were examined every three days, and the degree of retinal detachment was graded on the standard scale described above.

rabbit eye = assay: Intravitreal polypeptide toxicity in rabbit eye (ERG, clinical observations, histology); type: in vivo
Method: The toxicity of the polypeptides was determined by three techniques:
ERG. Electroretinograms (ERG) were carried out as a functional indicator of toxicity of a polypeptide treatment. Polypeptides were injected at 200 ug and 400 ug (twice the dose that inhibited proliferative vitreoretinopathy), and ERG measurements were performed three times in each eye at various times post-injection (1 hr to 6 weeks).
Clinical observations. Observation by indirect ophthalmoscopy and slit lamp examination were performed to probe for evidence of toxicity.
Histology. Following ERG and clinical observations, the eyes were immediately enucleated, fixed in 10% formalin, paraffin embedded, sectioned at 7 microns, and stained with hematoxylin and eosin.

LAGSCLARFSTM [Hep-II, Leu-Ala-Gly-Ser-Cys-Leu-Ala-Arg-Phe-Ser-Thr-Met]
Thymidine uptake ([1]; 800 microgram/ml): 580 cpm | Thymidine uptake ([1]; 1000 microgram/ml): 589 cpm | Concentration effective in controlling fibroblast proliferation in vitro ([1]; similar to mitomycin-C): 800-1000 microgram/ml | Heparin binding [2]: reported to bind heparin | Retina appearance (stage 0-7 scale), fundus photograph ([3]; 200 ug with 100,000 fibroblasts, seven weeks after fibroblast injection): normal (Stage 0) | # Detached Retinas (%) ([3]; Expt I: 200 ug, 50,000 cells, RD staged at day 21, control 66%): 17% | # Detached Retinas ([3]; Expt I: 200 ug, 50,000 cells, RD staged at day 21, total 6 eyes, control 4 of 6): 1 | Degree of retinal detachment ([3]; fibroblasts incubated 1 hr with 200 ug polypeptide, intravitreal): inhibited the degree of retinal detachment | Fundus appearance (rabbit eye; 6 weeks after injection of 200 ug in 0.1 ml): indistinguishable from the control eye | Toxic effects by clinical observations, histopathology or ERG (rabbit eye; intravitreal injection of 200 ug or 400 ug): No toxic effects

Source: patent publication US6013628A, “Method for treating conditions of the eye using polypeptides” (Regents of the University of Minnesota, priority 1995, dated 2000)
